Data as given in the NIST ThermoML archive (doi:10.1021/acs.jced.8b01046).
Several values for one entry are separate records, joined by “and”; a condition that tells them apart may be missing. Identical values can stand only once.

Experiments:
[1] = Liquid; for mass density: Vibrating tube method
[2] = wn = mass fraction of the nth substance listed; settings: 102 kPa, Liquid, Vibrating tube method

CCCCCCCC(=O)OCC(COC(=O)CCCCCCC)OC(=O)CCCCCCC [1,2,3-propanetriol trioctanoate]
[1]
Settings	mass density [kg/m3]	vapor or sublimation pressure [kPa]
293.15 K, 102 kPa	952.7	–
298.15 K, 102 kPa	948.9	–
298.15 K, 120 kPa	949.9	–
298.15 K, 9830 kPa	955.5	–
298.15 K, 20100 kPa	961.3	–
298.15 K, 30020 kPa	966.6	–
298.15 K, 40050 kPa	971.9	–
298.15 K, 50040 kPa	977.1	–
303.15 K, 102 kPa	944.9	–
313.15 K, 102 kPa	937.4	–
333.15 K, 102 kPa	922.5	–
353.15 K, 102 kPa	907.7	–
403.2 K, Transpiration method	–	0.0002069
408.2 K, Transpiration method	–	0.0003133
413.2 K, Transpiration method	–	0.0004698
423.2 K, Transpiration method	–	0.001006
433.2 K, Transpiration method	–	0.001977
443.2 K, Transpiration method	–	0.004016
448.2 K, Transpiration method	–	0.005491

CCCCCCCCCCCC(=O)OCC(COC(=O)CCCCCCCCCCC)OC(=O)CCCCCCCCCCC [1,2,3-propanetriyl tridodecanoate]
[1], 100 kPa
Settings	mass density [kg/m3]
303.15 K	905.1
313.15 K	899.6
333.15 K	886.9
353.15 K	870.4

CCCCCCCCCC(=O)OCC(COC(=O)CCCCCCCCC)OC(=O)CCCCCCCCC [1,2,3-propanetriyl tridecanoate]
[1]
Settings	mass density [kg/m3]	vapor or sublimation pressure
293.15 K, 102 kPa	921.6	–
298.15 K, 102 kPa	917.9	–
303.15 K, 102 kPa	913.6	–
313.15 K, 102 kPa	906.2	–
333.15 K, 102 kPa	891	–
348.5 K, Langmuir technique	–	1.39e-08 kPa and 1.36e-08 kPa
353.15 K, 102 kPa	875.9	–
353.48 K, Langmuir technique	–	2.94e-08 kPa and 2.9e-08 kPa
358.38 K, Langmuir technique	–	5.99e-08 kPa
363.18 K, Langmuir technique	–	1.19e-07 kPa and 1.2e-07 kPa
367.8 K, Langmuir technique	–	2.27e-07 kPa
367.81 K, Langmuir technique	–	2.23e-07 kPa

CCCCCCCCCCCC(=O)OCC(COC(=O)CCCCCCCCCCC)OC(=O)CCCCCCCCCCC [1,2,3-propanetriyl tridodecanoate] + CCCCCCCCO
mass density [kg/m3], [2]
Settings	293.15 K	298.15 K	303.15 K	313.15 K	333.15 K	353.15 K
w1 = 0.019	826.7	823.3	819.7	812.8	798.7	784
w1 = 0.051	829.5	826.2	822.5	815.6	801.5	786.8
w1 = 0.096	–	–	826.8	819.7	805.6	790.9
w1 = 0.149	–	–	831	824	809.9	795.2
w1 = 1	–	–	905.1	899.6	886.9	870.4

CCCCCCCCCC(=O)OCC(COC(=O)CCCCCCCCC)OC(=O)CCCCCCCCC [1,2,3-propanetriyl tridecanoate] + CCCCCCCCO
mass density [kg/m3], [2]
Settings	293.15 K	298.15 K	303.15 K	313.15 K	333.15 K	353.15 K
w1 = 0.016	826.5	823.1	819.5	812.6	798.6	783.8
w1 = 0.0385	828.7	825.1	821.6	814.7	800.7	785.9
w1 = 0.0772	832.5	829	825.4	818.5	804.3	789.5
w1 = 0.1287	837.4	833.9	830.3	823.3	809.1	794.4
w1 = 1	921.6	917.9	913.6	906.2	891	875.9
